Results: US20240239780A1, “MODIFIED FERROPORTIN INHIBITORS” (Vifor (International) AG, priority 2021, published 2024)

biological target: T1, ferroportin (Fpn) (Mus musculus, UniProt Q9JHI9); experiment: Hepcidin Internalization Assay (J774); assay type: cell-based; settings: J774 cells, TMR-hepcidin 25 nM, 2 hours; read-out: IC 50, average (AVE) of multiple measurements, hepcidin internalization assay
T1 construct: endogenous in cells; host or cells: J774 mouse macrophage cell line, induced with Fe(III)NTA
T1 sequence (Q9JHI9 1-570): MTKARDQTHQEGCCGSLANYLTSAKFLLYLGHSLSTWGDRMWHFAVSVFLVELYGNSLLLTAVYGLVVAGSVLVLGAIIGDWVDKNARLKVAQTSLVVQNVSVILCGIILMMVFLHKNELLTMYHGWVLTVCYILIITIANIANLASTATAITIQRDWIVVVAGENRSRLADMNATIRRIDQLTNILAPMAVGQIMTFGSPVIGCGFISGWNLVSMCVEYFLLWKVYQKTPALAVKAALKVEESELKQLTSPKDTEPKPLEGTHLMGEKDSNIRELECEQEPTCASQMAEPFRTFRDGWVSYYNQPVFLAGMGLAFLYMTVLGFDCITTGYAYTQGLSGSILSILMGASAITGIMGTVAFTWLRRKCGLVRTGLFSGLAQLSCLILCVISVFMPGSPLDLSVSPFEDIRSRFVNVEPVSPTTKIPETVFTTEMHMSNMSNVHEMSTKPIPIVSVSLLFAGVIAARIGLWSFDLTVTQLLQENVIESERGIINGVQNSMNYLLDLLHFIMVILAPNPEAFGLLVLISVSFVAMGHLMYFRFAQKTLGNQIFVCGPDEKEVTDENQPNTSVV
From the text: This cellular assay allows quantification of the binding of hepcidin to ferroportin (Fpn) through microscopic detection of internalization of a fluorescently labeled hepcidin into J774 cells. […] Binding of hepcidin to Fpn triggers internalization and degradation of both hepcidin and Fpn. […] Therefore, microscopic detection of cell-associated TMR fluorescence is a measure of hepcidin binding to Fpn and internalization of hepcidin and Fpn. If TMR-hepcidin is prevented from binding to Fpn, cellular TMR fluorescence remains low (Dürrenberger et al, 2013). The effect of small molecular weight Fpn inhibitor compounds in this assay was evaluated in vitro as described below. […] Cat. 655090) and grown at 37° C. with 5% CO2. After overnight incubation, cells were washed 3 times with pre-warmed DMEM w/o phenol red, 30 μl/well of DMEM w/o phenol red was added after the final wash and 10 μl/well of dilution series of test compounds were added in triplicates. […] Cells were incubated in a total volume of 50 μl at 37° C. with 5% CO2 for 2 hours, then Hoechst 33342 dye was added to a final concentration of 0.5 μg/ml to stain nuclei and further incubated for 10 min. at 37° C. with 5% CO2. […] After removal of the paraformaldehyde solution, cells were washed 3 times with PBS leaving 100 μl per well and the plates were sealed with foil plate seal. […] The acquired image data was analysed with the […] analysis software. […] IC50 values were calculated with the Sum(Mean) raw data using “log(inhibitor) vs. response” curve fitting of Prism 5 software (GraphPad Software Inc., version 5.02). For each data set the fit of the “log(inhibitor) vs. response (three parameters)” model was compared to the fit of the “log(inhibitor) vs. response-Variable slope (four parameters)” model and the IC50 data of the preferred model was used.

Compound	IC50 [nM]
O=C(NCc1ncccc1F)c1coc(CCNCCc2nc3cc(-c4cccc5c4CCCC5)ccc3[nH]2)n1 [compound 82]	15
O=C(NCc1ncccc1F)c1coc(CCNCCc2nc3cc(-c4cccc(F)c4)ccc3[nH]2)n1 [compound 61]	11
O=C(NCc1ncccc1Cl)c1coc(CCNCCc2nc3cc(-n4cccc4)ccc3[nH]2)n1 [compound 59]	28
O=C(NCc1ncccc1F)c1coc(CCNCCc2nc3cc(-c4ccccc4-c4ncco4)ccc3[nH]2)n1 [compound 86]	9
Cc1cccnc1CNC(=O)c1coc(CCNCCc2nc3cc(-c4ccccc4)ccc3[nH]2)n1 [compound 52]	26
O=C(NCc1nc2ccccc2c2ccccc12)c1coc(CCNCCc2nc3c(ccc4ccccc43)[nH]2)n1 [compound 8]	6700
Cc1ccc(-c2ccc3[nH]c(CCNCCc4nc(C(=O)NCc5ncccc5F)co4)nc3c2)cc1 [compound 60]	13
O=C(NCc1ncccc1F)c1coc(CCNCCc2nc3cc(C#Cc4ccccc4)ccc3[nH]2)n1 [compound 72]	2
O=C(NCc1ncccc1F)c1coc(CCNCCc2nc3c(-c4cccnc4)cccc3[nH]2)n1 [compound 18]	53
O=C(NCc1ncccc1F)c1coc(CCNCCc2nc3cc4c(cc3[nH]2)OCCO4)n1 [compound 34]	7
O=C(NCc1ncccc1F)c1coc(CCNCc2nc3c(ccc4ccccc43)[nH]2)n1 [compound 4, 2-(2-(((3H-naphtho[1,2-d]imidazol-2-yl)methyl)amino)ethyl)-N-((3-fluoropyridin-2-yl)methyl)oxazole-4-carboxamide]	68
O=C(NCc1ncccc1F)c1coc(CCNCCc2nc3cc(-n4cccc4)ccc3[nH]2)n1 [compound 32]	27
O=C(NCc1ccccn1)c1coc(CCNCCc2nc3cc(-c4cccc(F)c4)ccc3[nH]2)n1 [compound 69]	61
O=C(NCc1ncccc1F)c1coc(CCNCCc2nc3cc(-c4cccc(Cl)c4)ccc3[nH]2)n1 [compound 85]	11
O=C(NCc1ncccc1C(F)(F)F)c1coc(CCNCCc2nc3cc(-n4cccc4)ccc3[nH]2)n1 [compound 58]	171
O=C(NCc1ncccc1F)c1coc(CCNCCc2nc3cc(-c4ccc(Cl)cc4)ccc3[nH]2)n1 [compound 57]	27
O=C(NCc1ncccc1F)c1coc(CCNCCc2nc3cc(-c4ccc5c(c4)CCCC5)ccc3[nH]2)n1 [compound 89]	10
O=C(NCc1ccc2c(ccc3ccccc32)n1)c1coc(CCNCCc2nc3c(cnc4ccccc43)[nH]2)n1 [compound 12]	13900
O=C(NCc1ncccc1F)c1coc(CCNCCc2nc3cccc(C#Cc4ccccc4)c3[nH]2)n1 [compound 37]	34
O=C(NCc1ncccc1F)c1coc(CCNCCc2nc3c(-c4ccncc4)cccc3[nH]2)n1 [compound 20]	189
O=C(NCc1ncccc1F)c1coc(CCNCCc2nc3cc(-c4cccc5c4OCCO5)ccc3[nH]2)n1 [compound 81]	7
O=C(NCc1ncccc1F)c1coc(CCNCc2nc3cc4ccccc4cc3[nH]2)n1 [compound 1, 2-(2-(((1H-naphtho[2,3-d]imidazol-2-yl)methyl)amino)ethyl)-N-((3-fluoropyridin-2-yl)methyl)oxazole-4-carboxamide]	40
COCCOc1ccccc1-c1ccc2[nH]c(CCNCCc3nc(C(=O)NCc4ncccc4F)co3)nc2c1 [compound 68]	7
O=C(NCc1ncccc1F)c1coc(CCNCCc2nc3cc(-c4cccc(-c5ncco5)c4)ccc3[nH]2)n1 [compound 87]	14
COc1ccccc1-c1ccc2[nH]c(CCNCCc3nc(C(=O)NCc4ncccc4OC)co3)nc2c1 [compound 51]	17
O=C(NCc1ncccc1F)c1coc(CCNCCc2nc3cccc(C#Cc4cccnc4)c3[nH]2)n1 [compound 80]	83
O=C(NCc1nc2ccccc2c2ccccc12)c1coc(CCNCCc2nc3ccccc3[nH]2)n1 [compound 7]	1590
O=C(NCc1ncccc1F)c1coc(CCNCCc2nc3c(-c4cccc(Cl)c4)cccc3[nH]2)n1 [compound 28]	144

Compound	IC50 [nM]
Cc1cccc(-c2ccc3[nH]c(CCNCCc4nc(C(=O)NCc5ncccc5F)co4)nc3c2)c1C [compound 84]	12
O=C(NCc1ncccc1F)c1coc(CCNCCc2nc3ccc(-c4nn[nH]n4)cc3[nH]2)n1 [compound 40]	1040
O=C(NCc1ncccc1F)c1coc(CCNCCc2nc3cc(-c4ccccc4Cl)ccc3[nH]2)n1 [compound 44]	6
O=C(NCc1ccccn1)c1coc(CCNCCc2nc3cc(-c4ccc(F)cc4)ccc3[nH]2)n1 [compound 66]	68
CN(C)C(=O)c1cccc(C#Cc2ccc3[nH]c(CCNCCc4nc(C(=O)NCc5ncccc5F)co4)nc3c2)c1 [compound 76]	3
COc1cccnc1CNC(=O)c1coc(CCNCCc2nc3cc(-c4ccc(C)cc4)ccc3[nH]2)n1 [compound 74]	7
O=C(NCc1ncccc1F)c1coc(CCNCCc2nc3c4c(ccc3[nH]2)CCCC4)n1 [compound 39]	12
Cc1cccnc1CNC(=O)c1coc(CCNCCc2nc3cc4c(cc3[nH]2)OCCO4)n1 [compound 47]	11
COc1cccnc1CNC(=O)c1coc(CCNCCc2nc3cc(-n4cccc4)ccc3[nH]2)n1 [compound 54]	37
COc1cccc(-c2ccc3[nH]c(CCNCCc4nc(C(=O)NCc5ccccn5)co4)nc3c2)c1 [compound 70]	26
O=C(NCc1ncccc1F)c1coc(CCNCCc2nc3cc4c(cc3[nH]2)OCO4)n1 [compound 36]	11
O=C(NCc1ncccc1F)c1coc(CCNCCc2nc3cc(-c4ccccc4)ccc3[nH]2)n1 [compound 19]	6
O=C(NCc1ncccc1F)c1coc(CCNCCc2nc3cc4ccccc4cc3[nH]2)n1 [compound 43]	9
O=C(NCc1ncccc1F)c1coc(CCNCCc2nc3cc(CCc4ccccc4)ccc3[nH]2)n1 [compound 75]	2
COc1cccnc1CNC(=O)c1coc(CCNCCc2nc3c(ccc4ccccc43)[nH]2)n1 [compound 15]	33
O=C(NCc1ncccc1F)c1coc(CCNCCc2nc3cc(-c4ccc(-c5ncco5)cc4)ccc3[nH]2)n1 [compound 90]	5.8
CCc1ccccc1-c1ccc2[nH]c(CCNCCc3nc(C(=O)NCc4ncccc4F)co3)nc2c1 [compound 71]	6
O=C(NCc1ncccc1C(F)(F)F)c1coc(CCNCCc2nc3cc4c(cc3[nH]2)OCCO4)n1 [compound 56]	49
O=C(NCc1ncccc1F)c1coc(CCNCCc2nc3cc(-c4ccc5c(c4)OCCO5)ccc3[nH]2)n1 [compound 88]	12
COc1cccnc1CNC(=O)c1coc(CCNCCc2nc3cc(-c4ccccc4)ccc3[nH]2)n1 [compound 53]	16
Cc1ccccc1-c1ccc2[nH]c(CCNCCc3nc(C(=O)NCc4ncccc4F)co3)nc2c1 [compound 62]	8
COc1cccc(C#Cc2cccc3nc(CCNCCc4nc(C(=O)NCc5ncccc5F)co4)[nH]c23)c1 [compound 78]	41
Cc1cccnc1CNC(=O)c1coc(CCNCCc2nc3c(ccc4ccccc43)[nH]2)n1 [compound 13]	55
O=C(NCc1ncccc1F)c1coc(CCNCCc2nc3cnc4ccccc4c3[nH]2)n1 [compound 3, 2-(2-((2-(3H-imidazo[4,5-c]quinolin-2-yl)ethyl)amino)ethyl)-N-((3-fluoropyridin-2-yl)methyl)oxazole-4-carboxamide]	593
O=C(NCc1ccc2c(ccc3ccccc32)n1)c1coc(CCNCCc2nc3ccccc3[nH]2)n1 [compound 6, 2-(2-((2-(1H-benzo[d]imidazol-2-yl)ethyl)amino)ethyl)-N-(benzo[f]quinolin-3-ylmethyl)oxazole-4-carboxamide]	1600
O=C(NCc1ncccc1C(F)(F)F)c1coc(CCNCCc2nc3c(ccc4ccccc43)[nH]2)n1 [compound 16]	443
O=C(NCc1ncccc1F)c1coc(CCNCCc2nc3ccc(CN4CCOCC4)cc3[nH]2)n1 [compound 35]	57
